Source: patent US20230132202A1, “Polymeric Binder and High Molecular Weight Polymer Antifouling Compositions” (The University of British Columbia, priority 2020, published 2023)

Legend:
[1] = cited from earlier work
[2] = cited from earlier work; remark: listed apart in the source
[3] = Drug release measurements from coated silicon wafers, UV-Vis; format: physicochemical
Method: Drug release measurements: The coated silicon wafers were added into the wells of 96 well-plate and immersed in PBS buffer (200 μL) was added to each well. At day 1 and day 7, the solution was collected and the drug concentration was measured using UV-Vis spectroscopy and standard curves prepared using pure bioactive agents. The released solution was diluted to 1 mL using PBS before the measurements.

[4] = day 1, coated silicon wafer in PBS
[5] = day 7, coated silicon wafer in PBS

Molecule | Net charge at pH 7.4 [1] | Water solubility [2] [mg/mL] | concentration of eluted drug [3, 4] | concentration of eluted drug [3, 5]
Penicillin | Neutral | >30 |  | 
NC[C@H]1O[C@H](O[C@H]2[C@H](O)[C@@H](O[C@H]3O[C@H](CO)[C@@H](O)[C@H](N)[C@H]3O)[C@H](N)C[C@@H]2N)[C@H](N)C[C@@H]1O [Tobramycin] | Neutral | 53.7 |  | 
CC(=O)O[C@H]1C(=O)[C@@]2(C)[C@H]([C@H](OC(=O)c3ccccc3)[C@]3(O)C[C@H](OC(=O)[C@H](O)[C@@H](NC(=O)c4ccccc4)c4ccccc4)C(C)=C1C3(C)C)[C@]1(OC(C)=O)CO[C@@H]1C[C@@H]2O [Paclitaxel] |  |  | 1.3 ppm (microgram/mL) | 1.4 ppm (microgram/mL)
CO[C@H]1/C=C/O[C@@]2(C)Oc3c(C)c(O)c4c(O)c(c(/C=N/N5CCN(C)CC5)c(O)c4c3C2=O)NC(=O)/C(C)=C\C=C\[C@H](C)[C@H](O)[C@@H](C)[C@@H](O)[C@@H](C)[C@H](OC(C)=O)[C@@H]1C [Rifampicin] |  | 0.0413 |  | 
CC(=O)O[C@@]12CO[C@@H]1C[C@H](O)[C@@]1(C)C(=O)[C@H](O)C3=C(C)[C@@H](OC(=O)[C@H](O)[C@@H](NC(=O)OC(C)(C)C)c4ccccc4)C[C@@](O)([C@@H](OC(=O)c4ccccc4)[C@H]21)C3(C)C [Docetaxel] | Neutral | <0.01 | 12.5 ppm (microgram/mL) | 13.7 ppm (microgram/mL)
Gentamicin | Neutral |  |  | 
